Some test systems named below: SF-268; 786-0; OVCAR-5; UACC-257; M14; OVCAR-3; SK-OV-3; U-251; HOP-92; HCC 2998; Malme-3M; HOP-62; CCRF-CEM; SK-MEL-5; NCI-H460; RPMI-8226; SK-MEL-28; HL-60.
Holding throughout (test): NCI anticancer screen, dose series, 48 h

SMILES strings stand for the structures.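 How tested: cells in 96-well plates exposed to compound for 48 hours at five concentrations. GI50: concentration for 50% inhibition of growth.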 The source made the active and inactive calls. No stated cut-off is given here; in the data, active = GI50 up to about 1.1 µM and inactive = higher. Some results are limits rather than exact numbers.

Take `Clc1ccc2c(c1)[nH]c1c2nc2sccn21`: the GI50 in the test with SF-268, in the test on 786-0, in the test with OVCAR-5, in the test with UACC-257, in the test with M14 and in the test on OVCAR-3 was > 100 µM (inactive) each time. Further, the GI50 in the test on SK-OV-3, in the test on U-251, with HOP-92, with HCC 2998, in the test on Malme-3M and with HOP-62 was > 100 µM (inactive) in each case. Besides, the GI50 with CCRF-CEM, in the test with SK-MEL-5, in the test with NCI-H460, with RPMI-8226, in the test on SK-MEL-28 and in the test on HL-60 was > 100 µM (inactive) in each case.
With `CCOc1ccc(/N=N/c2c(-c3ccccc3)nn(C(=O)CC(=O)Nc3cccc(C)c3)c2-c2ccccc2)cc1`, the GI50 is 39 µM (inactive) with SF-268; > 100 µM (inactive) with 786-0; 74.1 µM (inactive) with OVCAR-5; > 100 µM (inactive) in the test on UACC-257; > 100 µM (inactive) in the test on M14; > 100 µM (inactive) in the test with OVCAR-3. Besides, the GI50 with SK-OV-3 was > 100 µM (inactive); in the test with U-251, 56.2 µM (inactive); in the test with HOP-92, > 100 µM (inactive); in the test with HCC 2998, 26.6 µM (inactive); with Malme-3M, > 100 µM (inactive); with HOP-62 it was > 100 µM (inactive). Besides, the GI50 in the test on CCRF-CEM was 76.9 µM (inactive); in the test with SK-MEL-5, 90.2 µM (inactive); in the test with NCI-H460, > 100 µM (inactive); in the test on RPMI-8226, 65.8 µM (inactive); in the test on SK-MEL-28 it was > 100 µM (inactive); in the test with HL-60 it was > 100 µM (inactive).
In the case of `COc1ccccc1NC(=O)CC(=O)n1nc(-c2ccccc2)c(/N=N/c2ccccc2[N+](=O)[O-])c1-c1ccccc1`, the GI50 was 95.3 µM (inactive) in the test with SF-268; > 100 µM (inactive) in the test with 786-0; 64.1 µM (inactive) in the test on OVCAR-5; > 100 µM (inactive) in the test on UACC-257; > 100 µM (inactive) with M14; 69 µM (inactive) in the test on OVCAR-3. Moreover, the GI50 was > 100 µM (inactive) in the test with SK-OV-3; 56.5 µM (inactive) with U-251; 81.7 µM (inactive) in the test on HOP-92; 70 µM (inactive) in the test with HCC 2998; > 100 µM (inactive) in the test on Malme-3M; > 100 µM (inactive) with HOP-62. Also, the GI50 in the test with CCRF-CEM is > 100 µM (inactive); in the test on SK-MEL-5, 94.4 µM (inactive); with NCI-H460, > 100 µM (inactive); in the test on RPMI-8226, 74.5 µM (inactive); with SK-MEL-28, 30 µM (inactive); with HL-60 it was > 100 µM (inactive).
On to `CC1=C(C(=O)Nc2ccc([N+](=O)[O-])cc2)C(c2ccco2)C(C(=O)Nc2ccc([N+](=O)[O-])cc2)=C(C)N1`, for which the GI50 with SF-268 is 21.3 µM (inactive); in the test on 786-0 it was 31.8 µM (inactive); with OVCAR-5 it was 30.9 µM (inactive); in the test on UACC-257, 18.5 µM (inactive); in the test with M14, 21.9 µM (inactive); in the test with OVCAR-3, 11.2 µM (inactive). For the same compound, the GI50 in the test on SK-OV-3 was 9.35 µM (inactive); with U-251, 21.9 µM (inactive); with HOP-92, 14.8 µM (inactive); in the test with HCC 2998 it was 8.77 µM (inactive); with Malme-3M, 12.4 µM (inactive); with HOP-62, 10 µM (inactive). Further, the GI50 with CCRF-CEM was 5.18 µM (inactive); in the test with SK-MEL-5, 14.5 µM (inactive); in the test on NCI-H460, 20.1 µM (inactive); in the test with RPMI-8226 it was 2.9 µM (inactive); in the test with SK-MEL-28, 28.2 µM (inactive); in the test with HL-60 it was 5.18 µM (inactive).
As for `CC(C(=O)Oc1ccc2ccccc2c1-c1c(O)ccc2ccccc12)c1ccccc1` (stereo not drawn), the GI50 is > 10 µM (inactive) in the test on SF-268; 14.8 µM (inactive) with 786-0; 16.9 µM (inactive) with OVCAR-5; 13.7 µM (inactive) in the test on UACC-257; 13.2 µM (inactive) with M14; 12.6 µM (inactive) with OVCAR-3. Besides, the GI50 with SK-OV-3 is 15.4 µM (inactive); in the test with U-251, 15.1 µM (inactive); in the test on HOP-92 it was 10.3 µM (inactive); in the test with HCC 2998, 14.5 µM (inactive); with Malme-3M it was 17.4 µM (inactive); in the test with HOP-62, 15.5 µM (inactive). Besides, the GI50 with CCRF-CEM is 16.3 µM (inactive); with SK-MEL-5, 13.7 µM (inactive); in the test with NCI-H460, 13.7 µM (inactive); with RPMI-8226 it was 15.3 µM (inactive); with SK-MEL-28 it was 15.4 µM (inactive); in the test on HL-60, 13.2 µM (inactive).
As for `O=C1C2=C(c3ccccc31)C(c1cccc(Cl)c1)NC(S)=N2` (stereo not drawn), the GI50 in the test with SF-268, in the test on 786-0, with OVCAR-5, with UACC-257, with M14 and in the test with OVCAR-3 was > 100 µM (inactive) each time. The GI50 in the test on SK-OV-3, in the test with U-251, with HOP-92, with HCC 2998, in the test on Malme-3M and in the test with HOP-62 was > 100 µM (inactive) in each case. The GI50 was > 100 µM (inactive) with CCRF-CEM; 55.1 µM (inactive) with SK-MEL-5; > 100 µM (inactive) with NCI-H460; 88.5 µM (inactive) in the test with RPMI-8226; > 100 µM (inactive) with SK-MEL-28; > 100 µM (inactive) with HL-60.
As to `NS(=O)(=O)c1ccc(NC(=O)COC(=O)c2cccc3c(=O)c4ccccc4[nH]c23)cc1`, the GI50 in the test on SF-268 is 15.9 µM (inactive); in the test on 786-0, 19.2 µM (inactive); in the test with OVCAR-5, > 56.5 µM (inactive); in the test on UACC-257, 57.3 µM (inactive); in the test on M14, 61.4 µM (inactive); in the test with OVCAR-3, 20.5 µM (inactive). Besides, the GI50 is 18.9 µM (inactive) in the test with SK-OV-3; 14.4 µM (inactive) with U-251; 16.5 µM (inactive) in the test with HOP-92; 39.4 µM (inactive) with HCC 2998; 17.9 µM (inactive) in the test on Malme-3M; 18.5 µM (inactive) in the test with HOP-62. Besides, the GI50 in the test with CCRF-CEM is 38.5 µM (inactive); with SK-MEL-5 it was > 83.4 µM (inactive); with NCI-H460, 33.8 µM (inactive); in the test on RPMI-8226 it was > 100 µM (inactive); with SK-MEL-28, 50.8 µM (inactive); in the test on HL-60 it was > 100 µM (inactive).
As for `O=C1C=CC(=O)N1Nc1ccc([N+](=O)[O-])cc1[N+](=O)[O-]`, the GI50 in the test on SF-268 was > 100 µM (inactive); in the test on 786-0, > 70.1 µM (inactive); in the test with OVCAR-5 it was > 100 µM (inactive); with UACC-257 it was > 56.2 µM (inactive); with M14 it was 19.9 µM (inactive); with OVCAR-3, 98.4 µM (inactive). Also, the GI50 with SK-OV-3 was > 100 µM (inactive); with U-251, > 100 µM (inactive); in the test on HOP-92, > 49.1 µM (inactive); in the test on HCC 2998, > 100 µM (inactive); in the test on Malme-3M, 16.8 µM (inactive); with HOP-62, > 100 µM (inactive). For the same compound, the GI50 in the test with CCRF-CEM was 14 µM (inactive); with SK-MEL-5, > 100 µM (inactive); in the test with NCI-H460 it was > 100 µM (inactive); with RPMI-8226 it was > 44.5 µM (inactive); in the test on SK-MEL-28, > 43.4 µM (inactive); with HL-60, 25.8 µM (inactive).
For `COc1ccc(/C=C(\Cl)c2ccc(OC)cc2)cc1`, the GI50 with SF-268, in the test on 786-0, with OVCAR-5, in the test on UACC-257, with M14 and in the test on OVCAR-3 was > 100 µM (inactive) in each case. Moreover, the GI50 was 0.325 µM (active) with SK-OV-3; > 100 µM (inactive) in the test on U-251; > 100 µM (inactive) in the test with HOP-92; > 100 µM (inactive) with HCC 2998; > 100 µM (inactive) in the test on Malme-3M; > 100 µM (inactive) in the test on HOP-62. Also, the GI50 in the test on CCRF-CEM, in the test on SK-MEL-5, in the test with NCI-H460, with RPMI-8226, in the test on SK-MEL-28 and with HL-60 was > 100 µM (inactive) in each case.
For `C[P+](C)(C)C`, the GI50 in the test on SF-268, in the test on 786-0, in the test with OVCAR-5, in the test on UACC-257, in the test on M14 and with OVCAR-3 was > 100 µM (inactive) in each case. In addition, the GI50 in the test on SK-OV-3, with U-251, in the test on HOP-92, in the test on HCC 2998, in the test with Malme-3M and in the test with HOP-62 was > 100 µM (inactive) throughout. For the same compound, the GI50 in the test on CCRF-CEM, in the test with SK-MEL-5, in the test with NCI-H460, with RPMI-8226, with SK-MEL-28 and in the test with HL-60 was > 100 µM (inactive) throughout.
In the case of `CC(C)CN(CC(C)C)C(=O)C1CCCC[C@@H]1C(=O)O` (stereo partly drawn), the GI50 was > 100 µM (inactive) in the test with SF-268; > 100 µM (inactive) in the test on 786-0; > 10 µM (inactive) in the test with OVCAR-5; > 100 µM (inactive) with UACC-257; > 100 µM (inactive) in the test on M14; > 100 µM (inactive) with OVCAR-3. For the same compound, the GI50 in the test on SK-OV-3, in the test on U-251, in the test on HOP-92, in the test with HCC 2998, in the test with Malme-3M and with HOP-62 was > 100 µM (inactive) each time. The GI50 in the test on CCRF-CEM, in the test with SK-MEL-5, with NCI-H460, in the test with RPMI-8226, in the test on SK-MEL-28 and with HL-60 was > 100 µM (inactive) each time.

Source of the values: ChEMBL document CHEMBL1201862, “PubChem BioAssay data set” (2004).
